Source: ChEMBL document CHEMBL1146038, “Hassallidin B--second antifungal member of the Hassallidin family” (2006)
Values after ≈ are worked out from the molar mass of the structure shown. Positions of bridges follow the written chain, without caps; N, C: chain ends. Non-standard residues stand in square brackets, D forms with d. Residues, ends and D or L forms follow the SMILES beside them. *: point of attachment. X3 = CCCCCCCCCCCC(O[C@@H]1O[C@@H](C)[C@H](O)[C@@H](O)[C@H]1O)C(O)C(=O)*; X2 = OC[C@H]1O[C@@H](*)[C@@H](O)[C@@H](O)[C@@H]1O; NMeT = CN[C@H](C(=O)O)[C@@H](C)O; X1 = CCCCCCCCCCCC(O)C(O)C(=O)*; Dhb = C/C=C(\N)C(=O)O

What was measured:
Type in all cases: functional
Cryptococcus neoformans [1] = assay: Antifungal activity against Cryptococcus neoformans ATCC 34543
Pichia kudriavzevii [2] = assay: Antifungal activity against Candida krusei ATCC 6258
Candida tropicalis [3] = assay: Antifungal activity against Candida tropicalis ATCC 750
Cryptococcus neoformans [4] = assay: Antifungal activity against Cryptococcus neoformans CBS 6955
Candida parapsilosis [5] = assay: Antifungal activity against Candida parapsilosis ATCC 22019; settings: Lodderomyces parapsilosis
Candida tropicalis [6] = assay: Antifungal activity against Candida tropicalis ATCC 90874
Nakaseomyces glabratus [7] = assay: Antifungal activity against Candida glabrata DSM 11950
Candida albicans [8] = assay: Antifungal activity against Candida albicans SC 5314
Candida albicans [9] = assay: Antifungal activity against Candida albicans ATCC 44374
Pichia kudriavzevii [10] = assay: Antifungal activity against Candida krusei ATCC 90878
Candida albicans [11] = assay: Antifungal activity against Candida albicans ATCC 24433
Candida albicans [12] = assay: Antifungal activity against Candida albicans ATCC 90028
Nakaseomyces glabratus [13] = assay: Antifungal activity against Candida glabrata ATCC 90030
Candida parapsilosis [14] = assay: Antifungal activity against Candida parapsilosis ATCC 90018; settings: Lodderomyces parapsilosis
Cryptococcus neoformans [15] = assay: Antifungal activity against Cryptococcus neoformans ATCC 90112
Cryptococcus neoformans [16] = assay: Antifungal activity against Cryptococcus neoformans DSM 6973

Structure (SMILES) | MFC (Cryptococcus neoformans [1]) [µg/mL] | MIC (Cryptococcus neoformans [1]) [µg/mL] | MFC (Pichia kudriavzevii [2]) [µg/mL] | MIC (Pichia kudriavzevii [2]) [µg/mL] | MFC (Candida tropicalis [3]) [µg/mL] | MIC (Candida tropicalis [3]) [µg/mL] | MFC (Cryptococcus neoformans [4]) [µg/mL] | MIC (Cryptococcus neoformans [4]) [µg/mL] | MFC (Candida parapsilosis [5]) [µg/mL] | MIC (Candida parapsilosis [5]) [µg/mL] | MFC (Candida tropicalis [6]) [µg/mL] | MIC (Candida tropicalis [6]) [µg/mL] | MFC (Nakaseomyces glabratus [7]) [µg/mL] | MIC (Nakaseomyces glabratus [7]) [µg/mL] | MFC (Candida albicans [8]) [µg/mL] | MIC (Candida albicans [8]) [µg/mL] | MFC (Candida albicans [9]) [µg/mL] | MIC (Candida albicans [9]) [µg/mL] | MFC (Pichia kudriavzevii [10]) [µg/mL] | MIC (Pichia kudriavzevii [10]) [µg/mL] | other results
C/C=C1\NC(=O)[C@H](Cc2ccc(O)cc2)NC(=O)[C@H]([C@@H](C)O)NC(=O)[C@@H](NC(=O)[C@@H](NC(=O)C(O)C(CCCCCCCCCCC)O[C@@H]2O[C@@H](C)[C@H](O)[C@@H](O)[C@H]2O)[C@@H](C)O)[C@@H](C)OC(=O)[C@H](CCC(N)=O)NC(=O)[C@H]([C@@H](C)O[C@@H]2O[C@H](CO)[C@@H](O)[C@H](O)[C@@H]2O)N(C)C(=O)CNC(=O)[C@H](CCC(N)=O)NC1=O (some centres undefined) (X3-TTTY[Dhb]QG[NMeT](X2)Q; ester 2-C) | 8 (≈ 5.23 µM) | 8 (≈ 5.23 µM) | 16 (≈ 10.5 µM) | 8 (≈ 5.23 µM) | 16 (≈ 10.5 µM) | 16 (≈ 10.5 µM) | 8 (≈ 5.23 µM) | 8 (≈ 5.23 µM) | 16 (≈ 10.5 µM) | 8 (≈ 5.23 µM) | 16 (≈ 10.5 µM) | 8 (≈ 5.23 µM) | 16 (≈ 10.5 µM) | 16 (≈ 10.5 µM) | 8 (≈ 5.23 µM) | 8 (≈ 5.23 µM) | 16 (≈ 10.5 µM) | 8 (≈ 5.23 µM) | 16 (≈ 10.5 µM) | 16 (≈ 10.5 µM) | MFC (Candida albicans [11]): 16 µg/mL (≈ 10.5 µM); MIC (Candida albicans [11]): 16 µg/mL (≈ 10.5 µM); MFC (Candida albicans [12]): 8 µg/mL (≈ 5.23 µM); MIC (Candida albicans [12]): 8 µg/mL (≈ 5.23 µM); MFC (Nakaseomyces glabratus [13]): 16 µg/mL (≈ 10.5 µM); MIC (Nakaseomyces glabratus [13]): 16 µg/mL (≈ 10.5 µM); MFC (Candida parapsilosis [14]): > 16 µg/mL; MIC (Candida parapsilosis [14]): 16 µg/mL (≈ 10.5 µM); MFC (Cryptococcus neoformans [15]): 8 µg/mL (≈ 5.23 µM); MIC (Cryptococcus neoformans [15]): 8 µg/mL (≈ 5.23 µM); MFC (Cryptococcus neoformans [16]): 8 µg/mL (≈ 5.23 µM); MIC (Cryptococcus neoformans [16]): 8 µg/mL (≈ 5.23 µM)
C/C=C1\NC(=O)[C@H](Cc2ccc(O)cc2)NC(=O)[C@H]([C@@H](C)O)NC(=O)[C@@H](NC(=O)[C@@H](NC(=O)C(O)C(O)CCCCCCCCCCC)[C@@H](C)O)[C@@H](C)OC(=O)[C@H](CCC(N)=O)NC(=O)[C@H]([C@@H](C)O[C@@H]2O[C@H](CO)[C@@H](O)[C@H](O)[C@@H]2O)N(C)C(=O)CNC(=O)[C@H](CCC(N)=O)NC1=O (some centres undefined) [HASSALLIDIN A] (X1-TTTY[Dhb]QG[NMeT](X2)Q; ester 2-C) | 8 (≈ 5.79 µM) | 4 (≈ 2.89 µM) | 8 (≈ 5.79 µM) | 8 (≈ 5.79 µM) | 4 (≈ 2.89 µM) | 4 (≈ 2.89 µM) | 8 (≈ 5.79 µM) | 4 (≈ 2.89 µM) | 8 (≈ 5.79 µM) | 8 (≈ 5.79 µM) | 8 (≈ 5.79 µM) | 8 (≈ 5.79 µM) | 8 (≈ 5.79 µM) | 8 (≈ 5.79 µM) | 8 (≈ 5.79 µM) | 4 (≈ 2.89 µM) | 4 (≈ 2.89 µM) | 4 (≈ 2.89 µM) | 8 (≈ 5.79 µM) | 8 (≈ 5.79 µM) | MFC (Candida albicans [11]): 4 µg/mL (≈ 2.89 µM); MIC (Candida albicans [11]): 4 µg/mL (≈ 2.89 µM); MFC (Candida albicans [12]): 4 µg/mL (≈ 2.89 µM); MIC (Candida albicans [12]): 4 µg/mL (≈ 2.89 µM); MFC (Nakaseomyces glabratus [13]): 8 µg/mL (≈ 5.79 µM); MIC (Nakaseomyces glabratus [13]): 8 µg/mL (≈ 5.79 µM); MFC (Candida parapsilosis [14]): 16 µg/mL (≈ 11.6 µM); MIC (Candida parapsilosis [14]): 8 µg/mL (≈ 5.79 µM); MFC (Cryptococcus neoformans [15]): 8 µg/mL (≈ 5.79 µM); MIC (Cryptococcus neoformans [15]): 4 µg/mL (≈ 2.89 µM); MFC (Cryptococcus neoformans [16]): 8 µg/mL (≈ 5.79 µM); MIC (Cryptococcus neoformans [16]): 4 µg/mL (≈ 2.89 µM)
